Cc1c(C#N)c([O-])nc(-c2ccccc2)c1/N=N/c1ccc([N+](=O)[O-])cc1.[K+]
melting point: > 300 °C
